The nature of this data set: Degradation study of 2-chloro-6-trichloromethylpyridine/NBPT in DMSO at 50° C. by LC. The format is physicochemical. The procedure:
A degradation study was performed using 2-chloro-6-trichloromethylpyridine/nBPT in DMSO
2-chloro-6-trichloromethylpyridine/NBPT=1/1 (w/w) mixture was dissolved in DMSO. LC's were done to analyze the content decrease along with time. All samples were sealed and protected under N2. All sample were stored 50° C.
C18 column, 255 nm. Retention time: 40 min. temperature: 30° C. 15 μL injection. Peak area percentage were calculated to analyze the concentration.

The structures appear in SMILES notation.

Consider `CCCCNP(N)(N)=S` [n-butylthiophosphoric triamide], for which the “content of active, LC peak area percentage” value is given as 100 peak area percentage (week 1); 99.6 peak area percentage (week 2); 98 peak area percentage (week 3); 97.6 peak area percentage (week 4); 96.5 peak area percentage (week 6); 95.3 peak area percentage (week 7). Further, the “content of active, LC peak area percentage” value (week 8) was 94.7 peak area percentage; the “content of active, LC peak area percentage” value (week 9) was found to be 93 peak area percentage; the “content of active, LC peak area percentage” value (week 10) was determined as 92.2 peak area percentage; the “content of active, LC peak area percentage” value (week 11) was determined as 92.1 peak area percentage; the “content of active, LC peak area percentage” value (week 12) is on record as 91.7 peak area percentage; the “content of active, LC peak area percentage” value (week 13) is 91 peak area percentage. The “content of active, LC peak area percentage” value reads like this: (week 14) 90.88 peak area percentage; (week 15) 90.01 peak area percentage; (week 16) 99.55 peak area percentage; (week 17) 89.06 peak area percentage; (week 18) 88.6 peak area percentage.

Regarding `Clc1cccc(C(Cl)(Cl)Cl)n1` [2-chloro-6-trichloromethylpyridine], the “content of active, LC peak area percentage” value is, setting by setting: (week 1) 100 peak area percentage; (week 2) 99 peak area percentage; (week 3) 99.4 peak area percentage; (week 4) 98.3 peak area percentage; (week 6) 95.3 peak area percentage; (week 7) 93.2 peak area percentage. Moreover, the “content of active, LC peak area percentage” value (week 8) was determined as 92.3 peak area percentage; the “content of active, LC peak area percentage” value (week 9) stood at 90.8 peak area percentage; the “content of active, LC peak area percentage” value (week 10) is given as 88 peak area percentage; the “content of active, LC peak area percentage” value (week 11) stood at 86.7 peak area percentage; the “content of active, LC peak area percentage” value (week 12) was 86.4 peak area percentage; the “content of active, LC peak area percentage” value (week 13) was 85 peak area percentage. Also, the “content of active, LC peak area percentage” value turned out to be 84.33 peak area percentage (week 14); 83.56 peak area percentage (week 15); 81.45 peak area percentage (week 16); 81 peak area percentage (week 17); 80.09 peak area percentage (week 18).

The record behind these values is patent publication US9637420B2, “Increased longevity of the nitrogen content of soil through improved liquid delivery formulations of urease inhibitors and/or nitrification inhibitors designed for urea and manure based fertilizers” (priority 2013, dated 2017).
